Reference: PubChem BioAssay (NCI)
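Protocol summary: plate cells (96-well), add compound at 5 concentrations, incubate 48 h, interpolate endpoints linearly. GI50: concentration for 50% inhibition of growth. TGI: total growth inhibition.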

Key:
Assay in all cases: inhibition of tumour cell growth, NCI panel, 48 h
A498 renal = test system: A498 renal
BT-549 breast = test system: BT-549 breast
CAKI-1 renal = test system: CAKI-1 renal
HS 578T breast = test system: HS 578T breast
MDA-MB-435 = test system: MDA-MB-435
MOLT-4 leukemia = test system: MOLT-4 leukemia
OVCAR-3 ovarian = test system: OVCAR-3 ovarian
SF-295 CNS = test system: SF-295 CNS
SR leukemia = test system: SR leukemia
SW-620 colon = test system: SW-620 colon

| SMILES | GI50 (A498 renal) [µM] | TGI (A498 renal) [µM] | GI50 (BT-549 breast) [µM] | TGI (BT-549 breast) [µM] | GI50 (CAKI-1 renal) [µM] | TGI (CAKI-1 renal) [µM] | GI50 (HS 578T breast) [µM] | TGI (HS 578T breast) [µM] | GI50 (MDA-MB-435) [µM] | TGI (MDA-MB-435) [µM] | GI50 (MOLT-4 leukemia) [µM] | TGI (MOLT-4 leukemia) [µM] | GI50 (OVCAR-3 ovarian) [µM] | TGI (OVCAR-3 ovarian) [µM] | GI50 (SF-295 CNS) [µM] | TGI (SF-295 CNS) [µM] | GI50 (SR leukemia) [µM] | TGI (SR leukemia) [µM] | GI50 (SW-620 colon) [µM] | TGI (SW-620 colon) [µM] |
| --- | --- | --- | --- | --- | --- | --- | --- | --- | --- | --- | --- | --- | --- | --- | --- | --- | --- | --- | --- | --- |
| O=C(NCCN1CCOCC1)Nc1ccc(-c2cc3c(Nc4ccc(Oc5cccc(C(F)(F)F)c5)c(Cl)c4)ncnc3s2)cc1 | 2.04 | 7.79 | 2.32 | 11.1 | 1.5 | 5.74 | 1.16 | 3.84 | 0.987 | 2 | 1.22 | 3.75 | 2.34 | 8.54 | 0.936 | 2 | 1.47 | 27.6 | 1.01 | 2.06 |
| COc1cc(C2CC(c3ccc4c(c3)OCO4)=NN2C(C)=O)cc(OC)c1OC (stereo not drawn) | 0.296 | 4.75 | 6.82 | > 100 | 0.715 | > 100 | 1.26 | > 74.1 | 0.183 | 0.674 | 1.05 | > 50.5 | 0.297 | 0.808 | 0.368 | 4.51 | 0.33 | > 37 | 0.426 | > 100 |
| O=C(O)C(Br)C(Br)c1ccccc1[N+](=O)[O-] (stereo not drawn) | – | > 100 | – | > 100 | – | > 100 | – | > 100 | – | > 100 | – | – | – | > 100 | – | > 100 | – | > 100 | – | > 100 |
| CCCCCCNC(=O)Oc1ccc(/C(=C(\C)c2ccccc2)c2ccc(OCCN3CCCCC3)cc2)cc1 | 7.46 | 21.6 | 2.38 | 7.1 | 2.2 | 5.11 | 2.71 | 13.4 | 1.84 | 4.01 | 2.68 | 9.66 | 1.97 | 4.82 | 1.74 | 3.5 | 1.73 | 4.39 | 2.16 | 5.66 |
| COc1ccc(OC)c(-c2cc(-c3ccccc3)nn2-c2ccc(S(N)(=O)=O)cc2)c1 | – | – | 17.7 | 38.9 | 14.8 | 32.8 | 18.9 | 59.1 | 6.73 | 24.8 | 6.44 | > 100 | 5.91 | 19 | 13.6 | 29.2 | 2.82 | > 100 | 12.7 | 33.4 |
| COc1cccc(Cn2cc3c(c2)-c2oncc2CC3)c1 | 0.239 | 1.19 | 6.85 | > 100 | 0.354 | > 84.8 | 0.249 | 0.886 | 0.0769 | 0.327 | 0.508 | > 21.7 | 0.267 | 0.7 | 0.245 | 1.04 | 0.312 | 6.03 | 0.319 | > 100 |
| O=C1/C(=C/c2ccc([N+](=O)[O-])s2)Oc2ccccc21 | 3.22 | 18 | 0.745 | 1.98 | 2.2 | 5.22 | 0.882 | > 48.6 | 1.3 | 3.17 | 0.654 | 3.23 | 0.25 | 0.55 | 2.07 | 4.63 | 0.216 | 0.759 | 0.257 | 0.725 |
| CCCCCCCCCCCCOC1C(C(COC2OC(C(O)CN3CCCCC3)C3OC(C)(C)OC23)NC(=O)Nc2ccccc2)OC2OC(C)(C)OC21 (stereo not drawn) | 16.9 | 32.7 | 14.9 | 29.5 | 17.7 | 35.7 | 8.75 | 23.6 | 7.02 | 20.8 | 1.29 | 5.54 | 14.7 | 34.6 | 15.3 | 31.7 | 1.91 | 4.3 | 4.11 | 14.7 |
| CCN(CC)CCCCCOc1cc(O)c2c(=O)cc(-c3ccccc3)oc2c1 | 2.46 | 9.48 | 12.5 | 26.5 | – | – | 15.6 | 42.7 | 3.18 | 7.63 | 3.76 | 11.2 | 1.93 | 4.94 | 2.87 | 5.69 | – | – | 3.03 | 10.3 |
| COc1ccc(C2C(c3ccccc3)C(=O)N2c2cc(OC)c(OC)c(OC)c2)cc1I (stereo not drawn) | 0.241 | 0.777 | 0.419 | 5.36 | – | – | 0.435 | > 100 | 0.209 | 0.644 | 0.337 | > 100 | 0.28 | 0.802 | 0.337 | > 100 | 0.286 | > 100 | 0.423 | > 100 |
| Oc1ccc(/C=N/Nc2nc3ccccc3s2)c(O)c1 | 4.16 | 36.8 | – | – | 1.07 | 15.7 | 2.91 | > 100 | 3.08 | > 100 | 2.24 | 88.1 | 1.92 | 12.8 | 2.86 | 35.4 | 1.53 | 11.4 | 3.47 | > 100 |
| Cc1[nH]nc2c1N=C(c1ccccc1F)c1cc(C#N)ccc1N2 | 0.146 | 1.08 | 2.65 | 12.1 | 0.051 | 5.66 | 0.122 | 3.83 | – | – | 6.25 | > 25 | 0.0887 | 8.31 | 0.207 | 15.9 | 0.0641 | > 18 | – | – |
| O=C(Nc1cccc(C(F)(F)F)c1)c1cccc(NC2=C(Cl)C(=O)N(Cc3ccccc3)C2=O)c1 | 40.3 | 90.7 | 18.8 | 64.2 | 6.5 | > 100 | 43.8 | > 100 | 8.69 | > 100 | 2.73 | > 100 | 8 | > 100 | 20.2 | > 100 | – | – | 38.4 | > 100 |
